According to patent publication US10913738B2 (BRISTOL-MYERS SQUIBB COMPANY, priority 2017, dated 2021):
pIC50: −log10 of the molar value. Like-named read-outs stand apart in the source and are kept apart here.

Legend:
[1] = molecular target: T1, His-GST-TVMV-hRIPK1(1-324) (Homo sapiens, UniProt Q13546); test: RIPK1 HTRF Binding Assay
T1 construct: The coding region of human RIPK1(1-324) flanked by NdeI site at 5′ end; made in house; host or cells: Spodoptera frugiperda (Sf9) insect cells, baculovirus
T1 sequence (Q13546 1-324): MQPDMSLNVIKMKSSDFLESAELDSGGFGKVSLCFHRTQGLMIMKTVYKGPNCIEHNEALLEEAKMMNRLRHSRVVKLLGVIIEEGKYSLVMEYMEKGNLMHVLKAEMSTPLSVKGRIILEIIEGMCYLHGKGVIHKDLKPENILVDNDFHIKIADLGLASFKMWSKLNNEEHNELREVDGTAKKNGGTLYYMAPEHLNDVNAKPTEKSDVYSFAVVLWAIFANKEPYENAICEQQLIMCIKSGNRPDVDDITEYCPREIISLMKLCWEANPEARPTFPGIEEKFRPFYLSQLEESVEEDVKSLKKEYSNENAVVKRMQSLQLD

[2] = test system: MLKL phosphorylation in HT29-L23 human colorectal adenocarcinoma cells; test: MLKL Phosphorylation High-Content Assay; format: cell-based; settings: Homo sapiens
In short: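 Cells incubated six hours at 37° C., then phospho-MLKL (S358) immunostained overnight at 4° C. and imaged by high-content microscopy. Phosphorylation quantified as mean circ-ring average intensity ratio; IC50 and Ymax from 4-parameter logistic fits.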

[3] = x marks IC50 class <20 nM, read-out: RIPK1 HTRF binding <20 nM
[4] = x marks IC50 class 20-200 nM, read-out: pMLKL cell activity 20-200 nM
[5] = x marks IC50 class <20 nM, read-out: pMLKL cell activity <20 nM
[6] = x marks IC50 class 20-200 nM, read-out: RIPK1 HTRF binding 20-200 nM
[7] = x marks IC50 class >200 nM, read-out: pMLKL cell activity >200 nM

Structure (SMILES)	pIC50 [1, 3]	pIC50 [2, 4]	pIC50 [2, 5]	pIC50 [1, 6]	pIC50 [2, 7]
COc1nc(C)c(-c2ccn3nc(N)nc3c2)cc1C(=O)NCc1ccccc1OCC1CC(F)(F)C1 [Example 4, 5-{2-Amino-[1,2,4]triazolo[1,5-a]pyridin-7-yl}-N-({2-[(3,3-difluorocyclobutyl)methoxy]phenyl}methyl)-2-methoxy-6-methylpyridine-3-carboxamide]	> 7.70	6.70 to 7.70			
Cc1ncc(-c2ccn3nc(N)nc3c2)cc1C(=O)NCc1ccccc1OC1CCOCC1 [Example 5, 5-{2-Amino-[1,2,4]triazolo[1,5-a]pyridin-7-yl}-2-methyl-N-{[2-(oxan-4-yloxy)phenyl]methyl}pyridine-3-carboxamide]	> 7.70	6.70 to 7.70			
COc1nc(C)c(-c2ccn3nc(N)nc3c2)cc1C(=O)NCc1ccccc1OC1CCOC1 (stereo not shown) [Example 6, 5-{2-Amino-[1,2,4]triazolo[1,5-a]pyridin-7-yl}-2-methoxy-6-methyl-N-{[2-(oxolan-3-yloxy)phenyl]methyl}pyridine-3-carboxamide]	> 7.70		> 7.70		
COc1nc(C)c(-c2ccn3nc(N)nc3c2)cc1C(=O)NCc1ccccc1OCC1CCCCC1 [Example 7, 5-{2-Amino-[1,2,4]triazolo[1,5-a]pyridin-7-yl}-N-{[2-(cyclohexylmethoxy)phenyl]methyl}-2-methoxy-6-methylpyridine-3-carboxamide]	> 7.70	6.70 to 7.70			
COc1nc(C)c(-c2ccn3nc(N)nc3c2)cc1C(=O)NCc1cccnc1OCC1CCCC1 [Example 8, 5-{2-Amino-[1,2,4]triazolo[1,5-a]pyridin-7-yl}-N-{[2-(cyclopentylmethoxy)pyridin-3-yl]methyl}-2-methoxy-6-methylpyridine-3-carboxamide]	> 7.70	6.70 to 7.70			
COc1nc(C)c(-c2ccn3nc(N)nc3c2)cc1C(=O)NCc1cc(F)cc(F)c1OCC1CC1 [Example 9, 5-{2-Amino-[1,2,4]triazolo[1,5-a]pyridin-7-yl}-N-{[2-(cyclopropylmethoxy)-3,5-difluorophenyl]methyl}-2-methoxy-6-methylpyridine-3-carboxamide]	> 7.70		> 7.70		
COc1ncc(-c2ccn3nc(N)nc3c2)cc1C(=O)NCc1ccccc1OCC1CCC(C)CC1 (stereo not shown) [Example 10, 5-{2-Amino-[1,2,4]triazolo[1,5-a]pyridin-7-yl}-2-methoxy-N-({2-[(4-methylcyclohexyl)methoxy]phenyl}methyl)pyridine-3-carboxamide]				6.70 to 7.70	< 6.70
COc1nc(C)c(-c2ccn3nc(N)nc3c2)cc1C(=O)NCc1ccccc1OCC1CCC(F)(F)CC1 [Example 11, 5-{2-Amino-[1,2,4]triazolo[1,5-a]pyridin-7-yl}-N-({2-[(4,4-difluorocyclohexyl)methoxy]phenyl}methyl)-2-methoxy-6-methylpyridine-3-carboxamide]	> 7.70				< 6.70
Cc1ncc(-c2ccn3nc(N)nc3c2)cc1C(=O)NCc1ncccc1OCC1CCCC1 [Example 12, 5-{2-amino-[1,2,4]triazolo[1,5-a]pyridin-7-yl}-N-{[3-(cyclopentylmethoxy)pyridin-2-yl]methyl}-2-methylpyridine-3-carboxamide]	> 7.70	6.70 to 7.70			
CCOc1ncc(-c2ccn3nc(N)nc3c2)cc1C(=O)NCc1c(F)cc(F)cc1OCC1CCCC1 [Example 13, 5-{2-Amino-[1,2,4]triazolo[1,5-a]pyridin-7-yl}-N-{[2-(cyclopentylmethoxy)-4,6-difluorophenyl]methyl}-2-ethoxypyridine-3-carboxamide]				6.70 to 7.70	< 6.70
CCOc1ncc(-c2ccn3nc(N)nc3c2)cc1C(=O)NCc1cc(F)cc(F)c1OCC1CCCC1 [Example 14, 5-{2-Amino-[1,2,4]triazolo[1,5-a]pyridin-7-yl}-N-{[2-(cyclopentylmethoxy)-3,5-difluorophenyl]methyl}-2-ethoxypyridine-3-carboxamide]	> 7.70	6.70 to 7.70			
Cc1ncc(-c2ccn3nc(N)nc3c2)cc1C(=O)NCc1c(F)cccc1OCC1CCCC1 [Example 15, 5-{2-Amino-[1,2,4]triazolo[1,5-a]pyridin-7-yl}-N-{[2-(cyclopentylmethoxy)-6-fluorophenyl]methyl}-2-methylpyridine-3-carboxamide]	> 7.70		> 7.70		
Cc1nc(C)c(-c2ccn3nc(N)nc3c2)cc1C(=O)NCc1ccccc1OC(C)C1CCCC1 (stereo not shown) [Example 16, 5-{2-Amino-[1,2,4]triazolo[1,5-a]pyridin-7-yl}-N-{[2-(1-cyclopentylethoxy)phenyl]methyl}-2,6-dimethylpyridine-3-carboxamide]	> 7.70	6.70 to 7.70			
Cc1ncc(C(=O)NCc2ncccc2OC2CCCC2)cc1-c1ccn2nc(N)nc2c1 [Example 17, 5-{2-Amino-[1,2,4]triazolo[1,5-a]pyridin-7-yl}-N-{[3-(cyclopentyloxy)pyridin-2-yl]methyl}-6-methylpyridine-3-carboxamide]	> 7.70	6.70 to 7.70			
Cc1ncc(-c2ccn3nc(N)nc3c2)cc1C(=O)NCc1ccc(F)cc1OCC1CCCC1 [Example 18, 5-{2-Amino-[1,2,4]triazolo[1,5-a]pyridin-7-yl}-N-{[2-(cyclopentylmethoxy)-4-fluorophenyl]methyl}-2-methylpyridine-3-carboxamide]				6.70 to 7.70	< 6.70
Nc1nc2cc(-c3cnc(C4CC4)c(C(=O)NCc4cccc(OC(F)(F)F)c4)c3)ccn2n1 [Example 19, 5-{2-Amino-[1,2,4]triazolo[1,5-a]pyridin-7-yl}-2-cyclopropyl-N-{[3-(trifluoromethoxy)phenyl]methyl}pyridine-3-carboxamide]		6.70 to 7.70		6.70 to 7.70	
Cc1ncc(-c2ccn3nc(N)nc3c2)cc1C(=O)NCc1cc(F)ccc1OCC1CCCC1 [Example 20, 5-{2-Amino-[1,2,4]triazolo[1,5-a]pyridin-7-yl}-N-{[2-(cyclopentylmethoxy)-5-fluorophenyl]methyl}-2-methylpyridine-3-carboxamide]	> 7.70	6.70 to 7.70			
COc1ncc(-c2ccn3nc(N)nc3c2)cc1C(=O)NCc1cnccc1OC1CCCC1 [Example 21, 5-{2-Amino-[1,2,4]triazolo[1,5-a]pyridin-7-yl}-N-{[4-(cyclopentyloxy)pyridin-3-yl]methyl}-2-methoxypyridine-3-carboxamide]	> 7.70	6.70 to 7.70			
COc1ncc(-c2ccn3nc(N)nc3c2)cc1C(=O)NCc1cc(F)cc(F)c1OC(C)C [Example 22, 5-{2-Amino-[1,2,4]triazolo[1,5-a]pyridin-7-yl}-N-{[3,5-difluoro-2-(propan-2-yloxy)phenyl]methyl}-2-methoxypyridine-3-carboxamide]	> 7.70		> 7.70		
COc1ncc(-c2ccn3nc(N)nc3c2)cc1C(=O)NCc1c(F)cccc1OC1CCC(C)C1 (stereo not shown) [Example 23, 5-{2-Amino-[1,2,4]triazolo[1,5-a]pyridin-7-yl}-N-({2-fluoro-6-[(3-methylcyclopentyl)oxy]phenyl}methyl)-2-methoxypyridine-3-carboxamide]	> 7.70		> 7.70		
Cc1ncc(-c2ccn3nc(N)nc3c2)cc1C(=O)NCc1ccc(F)cc1OCC1CC1 [Example 24, 5-{2-Amino-[1,2,4]triazolo[1,5-a]pyridin-7-yl}-N-{[2-(cyclopropylmethoxy)-4-fluorophenyl]methyl}-2-methylpyridine-3-carboxamide]				6.70 to 7.70	< 6.70
COc1ncc(C(=O)NCc2c(F)cccc2OCC2CCC2)cc1-c1ccn2nc(N)nc2c1 [Example 25, 5-{2-Amino-[1,2,4]triazolo[1,5-a]pyridin-7-yl}-N-{[2-(cyclobutylmethoxy)-6-fluorophenyl]methyl}-6-methoxypyridine-3-carboxamide]	> 7.70	6.70 to 7.70			
COc1ncc(C(=O)NCc2c(F)cccc2OCC2CC2)cc1-c1ccn2nc(N)nc2c1 [Example 26, 5-{2-Amino-[1,2,4]triazolo[1,5-a]pyridin-7-yl}-N-{[2-(cyclopropylmethoxy)-6-fluorophenyl]methyl}-6-methoxypyridine-3-carboxamide]	> 7.70	6.70 to 7.70			
COc1ncc(C(=O)NCc2cc(F)ccc2OC2CCCC2)cc1-c1ccn2nc(N)nc2c1 [Example 27, 5-{2-Amino-[1,2,4]triazolo[1,5-a]pyridin-7-yl}-N-{[2-(cyclopentyloxy)-5-fluorophenyl]methyl}-6-methoxypyridine-3-carboxamide]	> 7.70		> 7.70		
COc1ncc(C(=O)NCc2ccccc2OCC2CC2)cc1-c1ccn2nc(N)nc2c1 [Example 28, 5-{2-Amino-[1,2,4]triazolo[1,5-a]pyridin-7-yl}-N-{[2-(cyclopropylmethoxy)phenyl]methyl}-6-methoxypyridine-3-carboxamide]	> 7.70	6.70 to 7.70			
COc1ncc(-c2ccn3nc(N)nc3c2)cc1C(=O)NCc1c(F)cccc1OC(C)C [Example 29, 5-{2-Amino-[1,2,4]triazolo[1,5-a]pyridin-7-yl}-N-{[2-fluoro-6-(propan-2-yloxy)phenyl]methyl}-2-methoxypyridine-3-carboxamide]	> 7.70	6.70 to 7.70			
